Laboratory results: patent US20080125466A1, “Aryl-Substituted Benzo[D]Isothiazol-3-Ylamine Analogues” (NEUROGEN CORPORATION, priority 2003, published 2008)

Target: T1, human capsaicin receptor (Homo sapiens, UniProt Q8NER1)
T1 construct: transfected with the pBK-CMV expression construct encoding the full length human capsaicin receptor; expressed in transfected cells
Assay: Calcium mobilization assay (antagonist and agonist activity)
Assay type: cell-based
Conditions: capsaicin as positive control in agonist assay; read-out: approximate EC90 concentration
Procedure: This Example illustrates representative calcium mobilization assays for use in evaluating test compounds for agonist and antagonist activity.
The culture medium is emptied from the 96 well plates and FLUO-3 AM calcium sensitive dye (Molecular Probes, Eugene, Oreg.) is added to each well (dye solution: 1 mg FLUO-3 AM, 440 μL DMSO and 440 μl 20% pluronic acid in DMSO, diluted 1:250 in Krebs-Ringer HEPES (KRH) buffer (25 mM HEPES, 5 mM KCl, 0.96 mM NaH2PO4, 1 mM MgSO4, 2 mM CaCl2, 5 mM glucose, 1 mM probenecid, pH 7.4), 50 μl diluted solution per well). Plates are covered with aluminum foil and incubated at 37° C. for 1-2 hours in an environment containing 5% CO2. […]
To measure the ability of a test compound to agonize or antagonize a calcium mobilization response in cells expressing capsaicin receptors to capsaicin or other vanilloid agonist, the EC50 of the agonist capsaicin is first determined. […] Capsaicin-induced calcium mobilization is monitored using either FLUOROSKAN ASCENT (Labsystems; Franklin, Mass.) or FLIPR (fluorometric imaging plate reader system; Molecular Devices, Sunnyvale, Calif.) instruments. […]
In this equation, y is the maximum fluorescence signal, x is the concentration of the agonist or antagonist (in this case, capsaicin), a is the Emax, b corresponds to the EC50 value and c is the Hill coefficient. […]

T1 sequence (Q8NER1 whole entry): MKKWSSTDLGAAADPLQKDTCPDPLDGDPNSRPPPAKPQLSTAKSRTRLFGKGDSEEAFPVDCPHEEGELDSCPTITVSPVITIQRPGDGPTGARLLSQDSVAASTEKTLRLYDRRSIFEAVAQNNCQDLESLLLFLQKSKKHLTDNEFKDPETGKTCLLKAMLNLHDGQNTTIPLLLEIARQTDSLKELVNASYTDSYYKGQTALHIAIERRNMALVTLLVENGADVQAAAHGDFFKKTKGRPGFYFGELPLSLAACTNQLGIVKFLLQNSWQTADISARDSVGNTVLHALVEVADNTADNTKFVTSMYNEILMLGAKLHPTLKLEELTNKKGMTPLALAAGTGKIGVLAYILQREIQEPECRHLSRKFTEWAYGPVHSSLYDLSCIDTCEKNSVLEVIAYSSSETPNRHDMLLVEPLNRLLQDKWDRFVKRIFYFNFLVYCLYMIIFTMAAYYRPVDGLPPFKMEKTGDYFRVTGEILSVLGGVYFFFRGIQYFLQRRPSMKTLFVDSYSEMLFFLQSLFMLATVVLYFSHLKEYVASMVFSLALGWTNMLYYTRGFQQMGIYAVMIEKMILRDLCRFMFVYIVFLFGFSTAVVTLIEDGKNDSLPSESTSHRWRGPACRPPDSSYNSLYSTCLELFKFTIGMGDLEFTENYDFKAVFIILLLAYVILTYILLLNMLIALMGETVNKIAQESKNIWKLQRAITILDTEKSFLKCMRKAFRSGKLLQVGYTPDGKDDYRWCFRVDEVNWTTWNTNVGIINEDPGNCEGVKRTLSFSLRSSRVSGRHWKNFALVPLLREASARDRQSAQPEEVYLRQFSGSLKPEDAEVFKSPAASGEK

- EC90: ~100 nM
Compound: COc1cc(CNC(=O)CCCC/C=C/C(C)C)ccc1O [capsaicin]
